# According to the METLIN SMRT retention time set (Domingo-Almenara et al. 2019):
# Experiment: gradient 5% acetonitrile 3 min, to 50% in 2 min, to 85% in 15 min, held 3 min, 100 µL/min
# Settings: column: Zorbax Extend-C18 2.1 x 50 mm; eluents: water / acetonitrile, 0.1% formic acid
# Procedure, shortened: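 Pure standards were run in mixtures of ~100 molecules by HPLC coupled to a quadrupole time-of-flight mass spectrometer. The column was a Zorbax Extend-C18 (2.1 × 50 mm, 1.8 μm) at 100 μL/min, with water and acetonitrile each containing 0.1% formic acid, in positive and negative ionization mode. Dead and dwell volumes were 40 μL and 900 μL. Retention time was taken from computationally picked adduct peaks, each manually inspected, with data collected over 3 months.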
row,Structure (SMILES),RP-LC retention time
1,Cc1ccc(C(=O)Nc2ccc3c(c2)Sc2ncccc2C(=O)N3C(C)C)cc1F,986 s
2,O=C(NCCC1=CCCCC1)C1CCCN(c2cnc3nccnc3c2)C1 (centres undefined),766 s
3,O=C1NC(C(=O)NCC2CCCCC2)Cn2cccc21 (centres undefined),681 s
4,CC[C@H]1[C@@H]2C[C@H]3[C@@H]4N(C)c5ccccc5[C@]45C[C@@H]([C@H]2[C@H]5O)N3[C@@H]1O,652 s
5,O=C(O)c1ccccc1C(=O)Nc1ccccc1[N+](=O)[O-],782 s
6,O=C(c1cncnc1)N1CCC(F)(F)C(COCC2CC2)C1 (centres undefined),683 s
7,Cc1nc(-c2cccs2)c(CCC(=O)Nc2nccs2)s1,752 s
8,CC(C)N1CCN(C(=O)C2CC(=O)N(c3ccc4c(c3)CCN4C(=O)C3CC3)C2)CC1 (centres undefined),579 s
9,CCOc1ccc(-c2cn3ccn(-c4cc(C)c(Cl)cc4OC)c(=O)c3n2)cc1,972 s
10,Cc1ccc(C)c(C(=O)Nc2cccn3c(C)nnc23)c1,695 s
11,CC(C)C(=O)NCc1csc(C2CCN(C(=O)C3CCC3)CC2)n1,876 s
12,CCCCN1C(=O)C(C)(C(=O)Nc2cc(Cl)ccc2OC)Oc2cccnc21 (centres undefined),1230 s
13,CCS(=O)(=O)N1CCCc2cc(C(=O)NCCC(C)C)ccc21,884 s
14,CCCN1C(=O)c2[nH]nc(-c3cccc(OC)c3)c2C1c1cccnc1 (centres undefined),669 s
15,Cc1ccc(-c2csc(NC(=O)COc3cc(C)cc(C)c3)n2)cc1,1270 s
16,Cn1c(NC(=O)C2CC2)cc(=O)n(C)c1=O,605 s
17,CC1CCN(C(=O)c2nc(-c3ccnc(N4CCCC4)c3)no2)CC1,684 s
18,Cc1cc(C)cc(NC(=O)Cn2c(-c3cnccn3)nc(C)c(C)c2=O)c1,774 s
19,Cc1c(-c2noc(-c3ccc(N(C)C)cc3)n2)nnn1-c1ccc(F)cc1,1040 s
20,COC(=O)C1=C(N)Oc2cc(C)n(CCN(C)C)c(=O)c2C1c1cccc(OC)c1 (centres undefined),609 s
21,COc1ccc(OC)c(NC(=O)C2CCCN2S(=O)(=O)c2ccc3c(c2)CC(C)N3C(C)=O)c1 (centres undefined),863 s

row,Structure (SMILES),RP-LC retention time
1,CCOC(=O)c1ccc(NC(=O)C2CCC(=O)N2S(=O)(=O)c2ccc(C)c(C)c2)cc1 (centres undefined),978 s
2,CO[C@H]1CN(C2CCN(S(=O)(=O)c3cccc4cccnc34)CC2)[C@H]1c1cccnc1,605 s
3,O=C(NCCC1=CCCCC1)C(=O)NCC(O)c1ccc(C(F)(F)F)cc1 (centres undefined),949 s
4,CCc1c(C(=O)O)nnn1-c1ccc(C(F)(F)F)cc1,800 s
5,C=CCN1C(=O)COc2ccc(-c3nc(NC(=O)c4cccs4)sc3C)cc21,998 s
6,CCCN1C(=O)COc2ccc(-c3noc(-c4ccn(CC)n4)n3)cc21,956 s
7,O=C(NC1CCCCC1)C1CCCN(C(=O)c2cc(-c3cccnc3)n[nH]2)C1 (centres undefined),622 s
8,COc1ccc(OC)c(NC(=O)NC(C)C(=O)N2CCc3ccccc32)c1 (centres undefined),859 s
9,CCOC(=O)c1oc2ccc(S(=O)(=O)N3CCC(c4noc(C5CC5)n4)C3)cc2c1C (centres undefined),1000 s
10,COc1ccc(NC(=O)N2CCC3(C2)C(=O)Nc2ccccc23)cc1OC (centres undefined),676 s
11,C=CCN(C)C(=O)c1cnn2c3c(cnc12)CCCCCC3,827 s
12,O=C1[C@H]2CN(Cc3ccccc3OC(F)(F)F)C[C@H]2C(=O)N1Cc1ccc2c(c1)OCO2,1050 s
13,Cc1cc2c(c(=O)n(-c3ccccc3)c(=O)n2CC(=O)Nc2cccc(C(F)(F)F)c2)n1C,904 s
14,O=C(NCCc1c[nH]c2ccccc12)c1cc(-c2cccnc2)nc2ccccc12,741 s
15,CC(C)C(=O)N1CCCc2ccc(NC(=O)c3ccco3)cc21,789 s
16,CC(C)NC(=O)c1cc2nc(N(C)C)n(-c3ccc(F)cc3)c2s1,627 s
17,CC1CCCCN1S(=O)(=O)c1ccc2c(c1)CCC(=O)N2CC(=O)NC1CCCCC1 (centres undefined),921 s
18,COc1ccc(NC(=O)Cn2c(C)cc(-c3nnc(-c4ccco4)o3)c2C)cc1F,865 s
19,COC(=O)c1cnc2nc(C)ccc2c1Nc1cc(OC)cc(OC)c1,735 s
20,Cc1cc(C)cc(C(=O)N2CCN(c3nc(C)cc(N4CCCCC4)n3)CC2)c1,765 s

# Continued, values first:
row,RP-LC retention time,Structure (SMILES)
1,1150 s,Cc1ccc(NC(=O)c2cc(C3CC3)n3nccc3n2)c(F)c1
2,615 s,Cc1nc2cc3c(cc2n1CC(=O)NCc1ccc2c(c1)OCCCO2)OCCO3
3,752 s,O=C(NCc1ccco1)N1CCCn2nc(-c3cccs3)cc2C1
4,722 s,Nc1cc(C2CCN(C(=O)Nc3ccc(Cl)cc3)CC2)no1
5,824 s,Cc1csc(-c2cc(S(=O)(=O)N3CCOCC3)c(C)n2C)n1
6,645 s,Cc1ccn2cc(C(=O)NCc3ccc(F)cc3)nc2c1
7,960 s,CCCn1cc(S(=O)(=O)Nc2cc(C)ccc2C)c2cccnc21
8,806 s,CC(C)(C)c1ccc(C(=O)NCc2cnn3ccccc23)cc1
9,643 s,COc1cccc(-c2nc(-c3ccc4c(c3)ncn4CCN3CCCC3)no2)c1OC
10,657 s,O=C(NCC1(N2CCOCC2)CCOC1)Nc1cc(Cl)cc(Cl)c1 (centres undefined)
11,1030 s,Cc1sc2ccn(C)c(=O)c2c1C(=O)NC1CCN(Cc2ccccc2)CC1
12,1230 s,Cc1ccc(CNS(=O)(=O)c2cc(-c3cc(C(F)(F)F)on3)sc2C)cc1
13,786 s,COc1ccc(C2CCCN2C(=O)c2cc(C)on2)cc1 (centres undefined)
14,756 s,CCCNC(=O)C1CCN(Cc2cc3ccccc3n2Cc2cccc(Cl)c2)CC1
15,808 s,O=C(Nc1ccc(OCC(=O)N2CCN(c3ccc(Cl)cc3)CC2)nc1)C1CC1
16,829 s,COc1cc(OC)cc(N2C(=O)c3cc(C)nn3CC2(C)C(=O)NCc2ccc(F)cc2)c1 (centres undefined)
17,688 s,COc1ccc(CN2CC3(CCN(S(=O)(=O)c4cn(C)cn4)CC3)C2=O)cc1
18,1040 s,CCCn1ccc2oc(C)c(C(=O)NC(C)c3ccc(F)cc3)c2c1=O (centres undefined)
19,1100 s,Cc1cccc(N(C(=O)Nc2ccccc2C)C2=NCCC2)c1
20,770 s,COc1ccc(-n2ccc(=O)c(-c3nc(-c4ccccc4F)no3)n2)cc1OC
21,654 s,O=S(=O)(Cc1ccc(Cl)cc1)c1ccc(N2CCN(c3ccccn3)CC2)nn1
22,822 s,CC(C)c1noc(-c2ccn3c(CC(=O)N4CCc5ccccc5C4)nnc3c2)n1
23,754 s,CCC(C)(C)NC(=O)CCNc1c(-c2ccc(F)cc2)nc2cnccn12
24,1080 s,Cc1cc(C)c(NC(=O)CSc2nccc(N3CCN(c4cc(C)ccc4C)CC3)n2)c(C)c1

row,RP-LC retention time,Structure (SMILES)
1,760 s,CCCn1ccc2sc(C)c(C(=O)N3CCCCC3)c2c1=O
2,809 s,Cc1nn(CC(=O)N2CCOCC2)c(=O)c2c(-n3cccc3)n(-c3ccc(F)cc3)nc12
3,731 s,O=C(NCc1ccccc1F)C1CCc2nc(N3CCOCC3)ncc2C1 (centres undefined)
4,906 s,CCc1nnc(NC(=O)c2ccc(-c3ccccc3Cl)o2)s1
5,1100 s,O=C(Cc1ccc(Br)cc1)Nc1nc(-c2ccccc2)cs1
6,819 s,Cc1ccc(CN2C(=O)NC3(CCN(C(=O)c4ccc5c(c4)OCO5)CC3)C2=O)cc1
7,780 s,Cc1scc2nc(C(=O)NCc3ccc(F)cc3)nc(N(C)C)c12
8,970 s,Cc1nc(-c2cn(C(C)C)c3ncccc23)sc1C(=O)NCc1cccs1
9,681 s,Cc1ccc2c(Nc3ccc(C)c(C)c3)c(C(=O)N3CCCC(C)C3)cnc2n1 (centres undefined)
10,662 s,CCCN1CCN(C(=O)CSc2nccnc2Sc2ccccc2)CC1
11,727 s,O=C(Cn1nc2c3ccc(Cl)cc3ncn2c1=O)Nc1ccccc1
12,651 s,CCC(=O)N1N=C(c2cccc(NS(=O)(=O)CC)c2)CC1c1cccc([N+](=O)[O-])c1 (centres undefined)
13,1060 s,O=C(NCc1ccccc1)C1CCN(C(=O)c2cc3ccsc3n2Cc2ccc(Cl)cc2)CC1
14,776 s,O=C1CCCc2cc(S(=O)(=O)N3CCC(C(=O)NCCc4ccc(Cl)cc4)CC3)ccc2N1
15,634 s,CCc1ccc(-n2c(CN3CCN(C(=O)NCCCOC)CC3)nc3cccnc32)cc1
16,891 s,Cc1ccc(C(=O)N2CCN(c3ccc(-c4nc(C)c(C)s4)cn3)CC2)s1
17,1110 s,Cc1cccc(N2CCN(C(=O)Cn3ccc4ccc(N5CCOCC5)nc43)CC2)c1C
18,685 s,COC(=O)c1c(N)n(-c2cccc(F)c2)c2nc3ccccc3nc12
19,874 s,CCc1ccc(N2C(C)=NS(=O)(=O)c3cccnc32)cc1
20,705 s,Cc1cccc(CNC(=O)c2cn3ccncc3n2)c1
21,958 s,CSc1ccc(CNC(=O)Cn2ccc3ccc(N4CCOCC4)nc32)cc1
22,704 s,CCOCCCNC(=O)c1ccc(CS(=O)c2ccccc2Cl)o1 (centres undefined)
23,893 s,COc1ccc(OCC(=O)NCc2cc(-c3cc4ccccc4o3)on2)cc1
24,909 s,O=C(Nc1nc2ccccc2s1)C1CCCN(c2ncnc3c2nc2n3CCCCC2)C1 (centres undefined)
